pIC50: −log10 of the molar value. Some results are limits rather than exact numbers.

This experiment deals with H1047R PIK3CA enzyme (Homo sapiens, UniProt P42336, H1047R). In words: ADP-Glo Biochemical PIK3CA Kinase Assay.
H1047R PIK3CA enzyme, sequence (P42336 whole entry H1047R): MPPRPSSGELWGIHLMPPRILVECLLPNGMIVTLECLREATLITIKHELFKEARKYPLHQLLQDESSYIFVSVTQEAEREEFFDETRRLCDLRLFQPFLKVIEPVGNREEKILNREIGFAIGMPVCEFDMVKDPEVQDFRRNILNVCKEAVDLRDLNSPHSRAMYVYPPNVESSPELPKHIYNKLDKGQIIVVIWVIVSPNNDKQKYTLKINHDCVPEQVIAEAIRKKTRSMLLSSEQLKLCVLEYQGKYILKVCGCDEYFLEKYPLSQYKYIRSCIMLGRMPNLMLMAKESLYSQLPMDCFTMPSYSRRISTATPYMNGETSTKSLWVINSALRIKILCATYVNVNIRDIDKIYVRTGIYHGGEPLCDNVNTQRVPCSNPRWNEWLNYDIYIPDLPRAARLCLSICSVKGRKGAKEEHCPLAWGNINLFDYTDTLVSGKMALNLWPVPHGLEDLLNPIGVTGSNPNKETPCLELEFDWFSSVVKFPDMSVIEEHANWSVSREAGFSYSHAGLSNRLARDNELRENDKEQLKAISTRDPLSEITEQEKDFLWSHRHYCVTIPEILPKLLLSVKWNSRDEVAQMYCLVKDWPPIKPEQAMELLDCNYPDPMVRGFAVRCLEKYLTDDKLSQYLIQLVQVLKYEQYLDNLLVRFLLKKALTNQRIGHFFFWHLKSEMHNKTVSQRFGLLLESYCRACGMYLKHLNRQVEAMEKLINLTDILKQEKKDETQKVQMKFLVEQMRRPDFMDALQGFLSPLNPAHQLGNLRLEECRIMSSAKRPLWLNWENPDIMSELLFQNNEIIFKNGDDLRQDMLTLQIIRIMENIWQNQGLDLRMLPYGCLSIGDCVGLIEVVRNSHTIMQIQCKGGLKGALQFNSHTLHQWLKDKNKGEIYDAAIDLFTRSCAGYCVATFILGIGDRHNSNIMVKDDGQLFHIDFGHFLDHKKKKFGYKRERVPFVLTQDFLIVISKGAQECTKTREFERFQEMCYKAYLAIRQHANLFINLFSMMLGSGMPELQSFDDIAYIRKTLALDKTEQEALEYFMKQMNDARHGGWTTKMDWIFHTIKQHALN
H1047R PIK3CA enzyme, sequence (P27986 whole entry partner): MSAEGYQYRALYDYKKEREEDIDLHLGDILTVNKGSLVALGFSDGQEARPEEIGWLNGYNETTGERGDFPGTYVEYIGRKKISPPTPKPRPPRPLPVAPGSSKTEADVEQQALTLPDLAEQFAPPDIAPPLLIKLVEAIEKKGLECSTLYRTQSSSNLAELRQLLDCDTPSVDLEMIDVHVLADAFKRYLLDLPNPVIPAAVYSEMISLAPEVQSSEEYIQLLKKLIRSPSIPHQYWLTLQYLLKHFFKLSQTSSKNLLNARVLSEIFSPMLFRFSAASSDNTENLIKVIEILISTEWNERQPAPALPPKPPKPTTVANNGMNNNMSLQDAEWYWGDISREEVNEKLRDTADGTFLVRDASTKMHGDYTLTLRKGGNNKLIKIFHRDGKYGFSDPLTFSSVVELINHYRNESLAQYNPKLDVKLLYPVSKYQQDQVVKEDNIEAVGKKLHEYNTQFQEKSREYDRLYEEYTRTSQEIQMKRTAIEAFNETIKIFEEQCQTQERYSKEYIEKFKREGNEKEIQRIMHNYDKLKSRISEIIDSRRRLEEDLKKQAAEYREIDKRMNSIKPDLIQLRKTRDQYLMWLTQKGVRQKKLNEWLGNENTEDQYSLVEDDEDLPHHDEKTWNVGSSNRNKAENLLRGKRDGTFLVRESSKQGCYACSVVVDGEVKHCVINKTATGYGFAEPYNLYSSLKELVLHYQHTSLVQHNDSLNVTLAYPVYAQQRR
Take `O=C(Nc1cc(C(O)C(F)(F)F)cc2c1C(c1cc(F)ccc1Cl)NC2=O)c1cc(F)cc(C(F)(F)F)c1` (stereo not drawn) [Compound I-270, N-(3-(2-chloro-5-fluorophenyl)-1-oxo-6-(2,2,2-trifluoro-1-hydroxyethyl)isoindolin-4-yl)-3-fluoro-5-(trifluoromethyl)benzamide]: the pIC50 was at least 7.00. Under `CC(C)(O)c1cc(NC(=O)c2cc(F)cc(C(F)(F)F)c2)c2c(n1)C(=O)N[C@@H]2c1cc(F)ccc1Cl` [Compound I-271] stands 5.00 to 6.00. With `CC(C)(O)c1cc(NC(=O)c2cc(F)cc(C(F)(F)F)c2)c2c(n1)C(=O)N[C@H]2c1cc(F)ccc1Cl` [Compound I-272], the negative logarithm of the IC50 (pIC50) was 6.30 to 7.00. Then `Nc1cc(NC(=O)c2cc(F)cc(C(F)(F)F)c2)c2c(n1)C(=O)NC2c1cc(F)ccc1Cl` (stereo not drawn) [Compound I-273], with 6.30 to 7.00; and `O=C(Nc1cnc(N2CC(F)(F)C2)c2c1C(Cl)(c1cc(F)ccc1Cl)NC2=O)c1cc(F)cc(C(F)(F)F)c1` (stereo not drawn) [Compound I-274, N-(1-Chloro-1-(2-chloro-5-fluorophenyl)-4-(3,3-difluoroazetidin-1-yl)-3-oxo-2,3-dihydro-1H-pyrrolo[3,4-c]pyridin-7-yl)-3-fluoro-5-(trifluoromethyl)benzamide], with 5.00 to 6.00; and `O=C(Nc1cc(NCC(F)F)cc2c1C(c1cc(F)ccc1Cl)NC2=O)c1cc(F)cc(C(F)(F)F)c1` (stereo not drawn) [Compound I-275], with at least 7.00. For `Cc1ccccc1C1NC(=O)c2c(C(=O)NCC(F)F)ccc(NC(=O)c3nsc4ccccc34)c21` (stereo not drawn) [Compound I-276], the pIC50 is at least 7.00.

The compound `Cc1ccccc1C1NC(=O)c2cccc(NC(=O)c3nc(C)n4ccc(Cl)cc34)c21` (stereo not drawn) [Compound I-277, 7-Chloro-N-(1-oxo-3-(o-tolyl)isoindolin-4-yl)-3-methylimidazo[1,5-a]pyridine-1-carboxamide] showed a pIC50 of 4.00 to 5.00. `Cc1ccccc1C1NC(=O)c2c(C(=O)O)ccc(NC(=O)c3nsc4ccccc34)c21` (stereo not drawn) [Compound I-278] had a pIC50 of 6.00 to 6.30.

Compound `Cc1ccccc1C1NC(=O)c2c(Br)ccc(NC(=O)c3cc(F)cc(C(F)(F)F)c3)c21` (stereo not drawn) [Compound I-279] gave a pIC50 of 6.30 to 7.00.

Compound `CC(O)c1cc(NC(=O)c2cc(F)cc(C(F)(F)F)c2)c2c(n1)C(=O)NC2c1cc(F)ccc1Cl` (stereo not drawn) [Compound I-280] gave a pIC50 of 6.30 to 7.00.

Consider `Cc1ccc(F)cc1C1NC(=O)c2cccc(NC(=O)c3cc(F)cc(C(F)(F)F)c3)c21` (stereo not drawn) [Compound I-281], for which the pIC50 was 6.30 to 7.00. `Cc1ccccc1C1NC(=O)c2nccc(NC(=O)N3CCc4cccnc43)c21` (stereo not drawn) [Compound I-282]: the pIC50 is 5.00 to 6.00. As for `O=C(Nc1c(F)ccc2c1C(c1cc(F)ccc1C(F)F)NC2=O)c1cc(F)cc(C(F)(F)F)c1` (stereo not drawn) [Compound I-283, N-(3-(2-(Difluoromethyl)-5-fluorophenyl)-5-fluoro-1-oxoisoindolin-4-yl)-3-fluoro-5-(trifluoromethyl)benzamide], the negative-log IC50 (pIC50) is 6.00 to 6.30. Under `O=C(Nc1cc(NC2CC(F)(F)C2)nc2c1C(c1cc(F)ccc1Cl)NC2=O)c1cc(F)cc(C(F)(F)F)c1` (stereo not drawn) [Compound I-284] stands at least 7.00. In the case of `Cc1ccccc1C1NC(=O)c2cccc(NC(=O)c3nc(C)c4ccc(Cl)cn34)c21` (stereo not drawn) [Compound I-285], the pIC50 was 4.00 to 5.00.

`O=C(Nc1cc(N2CC(F)(F)C2)nc2c1C(c1cc(F)ccc1Cl)NC2=O)c1cc(F)cc(C(F)(F)F)c1` (stereo not drawn) [Compound I-286, N-[5-(2-Chloro-5-fluorophenyl)-2-(3,3-difluoroazetidin-1-yl)-7-oxo-5H,6H,7H-pyrrolo[3,4-b]pyridin-4-yl]-3-fluoro-5-(trifluoromethyl)benzamide] showed a pIC50 of at least 7.00. `O=C(Nc1cnc(-c2cn[nH]c2)c2c1C(c1cc(F)ccc1Cl)NC2=O)c1cc(F)cc(C(F)(F)F)c1` (stereo not drawn) [Compound I-287] showed a pIC50 of 6.30 to 7.00.

For the compound `COCCNc1cc(NC(=O)c2cc(F)cc(C(F)(F)F)c2)c2c(n1)C(=O)NC2c1cc(F)ccc1Cl` (stereo not drawn) [Compound I-288], the pIC50 was 6.30 to 7.00.

Turning to `CC(C)(O)c1cc(NC(=O)c2coc3c(F)cc(F)cc23)c2c(c1)C(=O)NC2c1cc(F)ccc1C(F)F` (stereo not drawn) [Compound I-290], the pIC50 was at least 7.00. On to `CN1CCN(c2cc(NC(=O)c3cc(F)cc(C(F)(F)F)c3)c3c(n2)C(=O)NC3c2cc(F)ccc2Cl)CC1` (stereo not drawn) [Compound I-291], for which the pIC50 was 6.30 to 7.00. Compound `Cc1ccccc1C1NC(=O)c2cccc(NC(=O)c3noc4c3CCCCC4)c21` (stereo not drawn) [Compound I-292] showed a negative-log IC50 (pIC50) of 4.00 to 5.00. Regarding `CC(C)Cc1cc(NC(=O)c2cc(F)cc(C(F)(F)F)c2)c2c(c1)C(=O)NC2c1cc(F)ccc1Cl` (stereo not drawn) [Compound I-293], the negative-log IC50 (pIC50) is at least 7.00.

With `Cc1ccccc1C1NC(=O)Oc2cccc(NC(=O)c3csc4ccccc34)c21` (stereo not drawn) [Compound I-294], the pIC50 was 6.30 to 7.00. As for `Cc1ccccc1C1NC(=O)Nc2cccc(OC(=O)c3csc4ccccc34)c21` (stereo not drawn) [Compound I-295], the pIC50 was 5.00 to 6.00. The compound `O=C(Nc1ccccc1Cl)Nc1ccnc2c1C(c1ccccc1Cl)NC2=O` (stereo not drawn) [Compound I-296] had a pIC50 of 5.00 to 6.00. Regarding `CS(=O)(=O)CC(O)c1cc(NC(=O)c2cc(F)cc(Cl)c2)c2c(c1)C(=O)NC2c1cc(F)ccc1Cl` (stereo not drawn) [Compound I-297], the pIC50 was 6.30 to 7.00.

Compound `CC(C)(O)c1cc(NC(=O)c2cc(F)cc(Cl)c2)c2c(c1)C(=O)N[C@@H]2c1cc(F)ccc1Cl` [Compound I-299] showed a pIC50 of 4.00 to 5.00. `CN1CCN(c2cc(NC(=O)c3cc(F)cc(C(F)(F)F)c3)c3c(c2)C(=O)NC3c2cc(F)ccc2Cl)CC1` (stereo not drawn) [Compound I-304] had a pIC50 of at least 7.00. The compound `O=C(Nc1ccnc2c1C(c1cc(F)ccc1Cl)NC2=O)c1cc(F)cc(C(F)(F)F)c1` (stereo not drawn) [Compound I-305] showed a pIC50 of 6.30 to 7.00. As to `Cc1ccccc1[C@@H]1NC(=O)c2cc(CO)cc(NC(=O)c3nsc4ccccc34)c21` [Compound I-306], the negative-log IC50 (pIC50) was at least 7.00.

Compound `Cc1ccccc1[C@H]1NC(=O)c2cc(CO)cc(NC(=O)c3nsc4ccccc34)c21` [Compound I-307] gave a pIC50 of 5.00 to 6.00. On to `CC(C)(O)c1cc(NC(=O)N2CCc3ccccc32)c2c(c1)C(=O)NC2c1cc(F)ccc1Cl` (stereo not drawn) [Compound I-308], for which the pIC50 was at least 7.00. The compound `O=C1NC(c2cc(F)ccc2Cl)c2c(NC(=O)N3CCc4ccccc43)cc(Br)cc21` (stereo not drawn) [Compound I-309] had a pIC50 of at least 7.00. The compound `CS(=O)(=O)Cc1cc(NC(=O)c2cc(F)cc(C(F)(F)F)c2)c2c(c1)C(=O)NC2c1cc(F)ccc1Cl` (stereo not drawn) [Compound I-310] gave a pIC50 of at least 7.00. In the case of `CN1CC[C@H](Nc2cc(NC(=O)c3cc(F)cc(C(F)(F)F)c3)c3c(c2)C(=O)NC3c2cc(F)ccc2Cl)C1` (stereo partly drawn) [Compound I-311], the pIC50 is at least 7.00.

In the case of `CN1CC[C@@H](Nc2cc(NC(=O)c3cc(F)cc(C(F)(F)F)c3)c3c(c2)C(=O)NC3c2cc(F)ccc2Cl)C1` (stereo partly drawn) [Compound I-312], the pIC50 is at least 7.00. Compound `Cc1ccccc1C1NC(=O)c2c(C#N)ccc(NC(=O)c3cc(F)cc(C(F)(F)F)c3)c21` (stereo not drawn) [Compound I-313] had a negative-log IC50 (pIC50) of 6.30 to 7.00.

As to `COC(=O)c1cc(NC(=O)c2nsc3ccccc23)c2c(c1)C(=O)NC2c1ccccc1C` (stereo not drawn) [Compound I-314], the pIC50 is 6.00 to 6.30. Then `Cc1ccccc1C1NC(=O)c2cc(C3(O)CC3)cc(NC(=O)c3nsc4ccccc34)c21` (stereo not drawn) [Compound I-315, N-[6-(1-hydroxycyclopropyl)-3-(2-methylphenyl)-1-oxo-2,3-dihydro-1H-isoindol-4-yl]-1,2-benzothiazole-3-carboxamide], with at least 7.00. `Cc1ccccc1C1NC(=O)c2cccc(NC(=O)c3cc(F)n4ccccc34)c21` (stereo not drawn) [Compound I-316] gave a pIC50 of 6.00 to 6.30. For the compound `COc1cc(C(=O)Nc2cccc3c2C(c2ccccc2C)NC3=O)cc(F)c1F` (stereo not drawn) [Compound I-317], the pIC50 was 6.00 to 6.30. Then `Cc1ccccc1C1NC(=O)c2cccc(NC(=O)c3cc(F)cc(OC(F)(F)F)c3)c21` (stereo not drawn) [Compound I-318], with 6.00 to 6.30; and `CCCNc1cc(NC(=O)c2cc(F)cc(C(F)(F)F)c2)c2c(n1)C(=O)NC2c1cc(F)ccc1Cl` (stereo not drawn) [Compound I-319], with at least 7.00; and `O=C(Nc1cnc(N2CC(F)(F)C2)c2c1C(c1cc(F)ccc1Cl)NC2=O)c1cc(F)cc(C(F)(F)F)c1` (stereo not drawn) [Compound I-320], with 6.30 to 7.00. Under `O=C(Nc1cc(NCC(F)(F)F)nc2c1C(c1cc(F)ccc1Cl)NC2=O)c1cc(F)cc(C(F)(F)F)c1` (stereo not drawn) [Compound I-321] stands at least 7.00; under `CC1(O)CN(c2cc(NC(=O)c3cc(F)cc(C(F)(F)F)c3)c3c(n2)C(=O)NC3c2cc(F)ccc2Cl)C1` (stereo not drawn) [Compound I-322], 6.30 to 7.00; under `O=C(Nc1cccc2c(=O)[nH]n(-c3cc(F)ccc3Cl)c12)c1cc(F)cc(C(F)(F)F)c1` [Compound I-323], 5.00 to 6.00. Under `COc1cc2c(cn1)N(C(=O)Nc1ccnc3c1C(c1ccccc1C)NC3=O)CC2` (stereo not drawn) [Compound I-324] stands 4.00 to 5.00; under `O=C(Nc1cccc2c1C(c1ccccc1Br)NC2=O)c1cc(F)cc(C(F)(F)F)c1` (stereo not drawn) [Compound I-325], 6.30 to 7.00. Compound `CN(C)/C=N/c1cc(Br)cc2c1C(c1cc(F)ccc1Br)NC2=O` (stereo not drawn) [Compound I-326] had a pIC50 of 4.00 to 5.00.

With `Cc1cc(F)ccc1C1NC(=O)c2cccc(NC(=O)c3cc(F)cc(C(F)(F)F)c3)c21` (stereo not drawn) [Compound I-327], the pIC50 was 6.00 to 6.30. The compound `Cc1ccccc1C1NC(=O)c2cccc(NC(=O)c3nnc4ccccn34)c21` (stereo not drawn) [Compound I-328, N-(1-oxo-3-(o-tolyl)isoindolin-4-yl)-[1,2,4]triazolo[4,3-a]pyridine-3-carboxamide] showed a pIC50 of 4.00 to 5.00. Then `O=C(Nc1cccc2c1C(c1cc(F)c(F)cc1C(F)F)NC2=O)c1cc(F)cc(C(F)(F)F)c1` (stereo not drawn) [Compound I-330], with at least 7.00; and `O=C(Nc1cccc2c1C(c1cc(F)c(F)cc1C(F)F)NC2=O)c1cc(F)cc(Cl)c1` (stereo not drawn) [Compound I-331], with 6.30 to 7.00; and `O=C1NC(c2cc(F)c(F)cc2C(F)F)c2c(NC(=O)c3nsc4ccc(F)cc34)cccc21` (stereo not drawn) [Compound I-332], with at least 7.00.

In turn, `O=Cc1cc(NC(=O)c2cc(F)cc(C(F)(F)F)c2)c2c(c1)C(=O)NC2c1cc(F)ccc1Cl` (stereo not drawn) [Compound I-333, N-(3-(2-Chloro-5-fluorophenyl)-6-formyl-1-oxoisoindolin-4-yl)-3-fluoro-5-(trifluoromethyl)benzamide] had a pIC50 of at least 7.00.

The record behind these values is US12581252B2, “Substituted pyrrolo[3,4-b]pyridines as PI3K-α inhibitors” (Relay Therapeutics, Inc., priority 2020, dated 2026).
